Reference: paper PMC9030932, “Development of Dibenzothiazepine Derivatives as Multifunctional Compounds for Neuropathic Pain” (Pharmaceuticals, 2022)
Like-named read-outs stand apart in the source and are kept apart here.

Experiments:
Format in all cases: cell-based
[1] = molecular target: human dopamine transporter (hDAT) (Homo sapiens, UniProt Q01959); assay: Neurotransmitter transporter uptake assay, HEK-hDAT; conditions: read-out: % Inhibition at 10 μM hDAT
[2] = molecular target: human serotonin transporter (hSERT) (Homo sapiens, UniProt P31645); assay: Neurotransmitter transporter uptake assay, HEK-hSERT; conditions: for inhibition at 10 µM: read-out: % Inhibition at 10 μM hSERT
Sequence of human serotonin transporter (hSERT) (P31645 whole entry): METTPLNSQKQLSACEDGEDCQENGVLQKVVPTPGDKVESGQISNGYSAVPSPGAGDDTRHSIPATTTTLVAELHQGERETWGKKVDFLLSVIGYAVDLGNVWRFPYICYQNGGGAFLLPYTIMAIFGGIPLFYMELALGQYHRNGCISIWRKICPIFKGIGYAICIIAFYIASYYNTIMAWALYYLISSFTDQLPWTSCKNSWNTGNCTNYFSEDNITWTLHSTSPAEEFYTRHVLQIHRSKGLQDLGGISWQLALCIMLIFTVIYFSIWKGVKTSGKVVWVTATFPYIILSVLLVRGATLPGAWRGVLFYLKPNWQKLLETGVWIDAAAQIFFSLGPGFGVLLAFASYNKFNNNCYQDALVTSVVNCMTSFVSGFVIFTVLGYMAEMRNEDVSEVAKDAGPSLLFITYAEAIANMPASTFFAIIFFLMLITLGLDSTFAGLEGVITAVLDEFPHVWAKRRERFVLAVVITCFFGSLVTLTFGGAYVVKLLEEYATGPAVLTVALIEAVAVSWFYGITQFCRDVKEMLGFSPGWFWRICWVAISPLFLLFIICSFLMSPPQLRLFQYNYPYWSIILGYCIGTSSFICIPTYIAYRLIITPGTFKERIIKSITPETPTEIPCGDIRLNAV

[3] = molecular target: human norepinephrine transporter (hNET) (Homo sapiens, UniProt P23975); assay: Neurotransmitter transporter uptake assay, HEK-hNET; conditions: read-out: % Inhibition at 10 μM hNET
Sequence of human norepinephrine transporter (hNET) (P23975 whole entry): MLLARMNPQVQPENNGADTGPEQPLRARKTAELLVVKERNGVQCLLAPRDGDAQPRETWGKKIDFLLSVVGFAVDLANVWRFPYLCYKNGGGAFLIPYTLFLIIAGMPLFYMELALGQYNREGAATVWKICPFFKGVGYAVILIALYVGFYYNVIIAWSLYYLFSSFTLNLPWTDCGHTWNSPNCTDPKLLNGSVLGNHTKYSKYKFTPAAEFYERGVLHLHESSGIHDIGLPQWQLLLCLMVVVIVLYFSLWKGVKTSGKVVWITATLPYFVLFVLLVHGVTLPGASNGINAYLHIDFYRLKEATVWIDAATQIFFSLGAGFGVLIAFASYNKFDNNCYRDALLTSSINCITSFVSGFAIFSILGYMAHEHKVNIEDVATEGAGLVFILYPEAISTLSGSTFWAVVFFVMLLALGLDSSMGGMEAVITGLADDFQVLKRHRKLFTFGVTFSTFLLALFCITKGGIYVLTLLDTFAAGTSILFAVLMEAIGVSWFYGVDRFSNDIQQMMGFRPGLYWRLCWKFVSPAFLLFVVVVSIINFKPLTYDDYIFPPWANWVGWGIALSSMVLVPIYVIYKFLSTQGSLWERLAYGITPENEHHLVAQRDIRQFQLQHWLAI

[4] = 10 μM, HEK-hSERT, mean ± SEM, n = 3–6
[5] = 10 μM, HEK-hNET, mean ± SEM, n = 3–6

Sequence of human dopamine transporter (hDAT) (Q01959 whole entry): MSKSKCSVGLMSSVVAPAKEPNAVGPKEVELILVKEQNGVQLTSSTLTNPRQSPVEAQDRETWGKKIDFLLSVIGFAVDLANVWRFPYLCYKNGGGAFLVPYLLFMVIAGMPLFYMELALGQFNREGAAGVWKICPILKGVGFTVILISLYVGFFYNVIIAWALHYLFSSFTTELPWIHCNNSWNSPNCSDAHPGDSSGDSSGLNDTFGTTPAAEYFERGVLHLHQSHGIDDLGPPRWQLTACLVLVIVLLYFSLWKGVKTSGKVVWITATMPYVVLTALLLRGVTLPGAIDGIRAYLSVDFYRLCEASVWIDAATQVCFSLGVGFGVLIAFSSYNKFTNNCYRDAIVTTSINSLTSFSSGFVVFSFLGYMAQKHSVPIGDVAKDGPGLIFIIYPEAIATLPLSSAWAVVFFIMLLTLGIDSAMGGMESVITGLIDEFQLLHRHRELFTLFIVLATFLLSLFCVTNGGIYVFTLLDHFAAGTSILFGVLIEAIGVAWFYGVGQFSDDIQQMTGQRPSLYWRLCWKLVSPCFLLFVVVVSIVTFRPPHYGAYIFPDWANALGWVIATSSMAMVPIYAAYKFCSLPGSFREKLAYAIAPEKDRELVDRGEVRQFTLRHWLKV

## CN1c2ccccc2C(NCCc2c[nH]c3ccc(O)cc23)c2ccc(Cl)cc2S1(=O)=O (centres unmarked) [Compound 7, 3-chloro-11-((2-(5-hydroxy-1H-indol-3-yl)ethyl)amino)-6-methyl-6,11-dihydrodibenzo[c,f][1,2]thiazepine 5,5-dioxide]
[1]
  inhibition at 10 µM: 36.2 ± 2.7%
[2]; [4]
  inhibition at 10 µM: 37.5 ± 2.5%
[3]; [5]
  inhibition at 10 µM: 30.8 ± 2.8%

## CN1c2ccccc2C(NCC(=O)NCCc2c[nH]c3ccc(O)cc23)c2ccc(Cl)cc2S1(=O)=O (centres unmarked) [Compound 11a, 2-((3-chloro-6-methyl-5,5-dioxido-6,11-dihydrodibenzo[c,f][1,2]thiazepin-11-yl)amino)-N-(2-(5-hydroxy-1H-indol-3-yl)ethyl)acetamide]
[1]
  inhibition at 10 µM: 33.2 ± 6.5%
[2]; [4]
  inhibition at 10 µM: 50.9 ± 4.1%
[3]; [5]
  inhibition at 10 µM: 13.2 ± 2.3%

## CN1c2ccccc2C(NCCC(=O)NCCc2c[nH]c3ccc(O)cc23)c2ccc(Cl)cc2S1(=O)=O (centres unmarked) [Compound 11b, 3-((3-chloro-6-methyl-5,5-dioxido-6,11-dihydrodibenzo[c,f][1,2]thiazepin-11-yl)amino)-N-(2-(5-hydroxy-1H-indol-3-yl)ethyl)propanamide]
[1]
  inhibition at 10 µM: 44.9 ± 4.2%
[2]
  IC50: 4.08 ± 0.032 µM
[3]; [5]
  inhibition at 10 µM: 54.8 ± 3.7%

## CN1c2ccccc2C(NCCCC(=O)NCCc2c[nH]c3ccc(O)cc23)c2ccc(Cl)cc2S1(=O)=O (centres unmarked) [Compound 11c, 4-((3-chloro-6-methyl-5,5-dioxido-6,11-dihydrodibenzo[c,f][1,2]thiazepin-11-yl)amino)-N-(2-(5-hydroxy-1H-indol-3-yl)ethyl)butanamide]
[1]
  inhibition at 10 µM: 41.3 ± 5.7%
[2]; [4]
  inhibition at 10 µM: 35.5 ± 3.7%
[3]; [5]
  inhibition at 10 µM: 24.3 ± 7.4%

## CN1c2ccccc2C(NCCCCC(=O)NCCc2c[nH]c3ccc(O)cc23)c2ccc(Cl)cc2S1(=O)=O (centres unmarked) [Compound 11d, 5-((3-chloro-6-methyl-5,5-dioxido-6,11-dihydrodibenzo[c,f][1,2]thiazepin-11-yl)amino)-N-(2-(5-hydroxy-1H-indol-3-yl)ethyl)pentanamide]
[1]
  inhibition at 10 µM: 41.3 ± 7.6%
[2]; HEK-hSERT, neurotransmitter uptake, mean ± SEM, n = 3–6, read-out: IC50 hSERT
  IC50: 10.1 ± 0.5 µM
[3]; [5]
  inhibition at 10 µM: 21.1 ± 4.7%

## CN1c2ccccc2C(NCCCCCC(=O)NCCc2c[nH]c3ccc(O)cc23)c2ccc(Cl)cc2S1(=O)=O (centres unmarked) [Compound 11e, 6-((3-chloro-6-methyl-5,5-dioxido-6,11-dihydrodibenzo[c,f][1,2]thiazepin-11-yl)amino)-N-(2-(5-hydroxy-1H-indol-3-yl)ethyl)hexanamide]
[1]
  inhibition at 10 µM: 40.2 ± 0.12%
[2]
  IC50: 6.74 ± 0.38 µM
[3]; [5]
  inhibition at 10 µM: 30.1 ± 5%

## COc1ccc2[nH]cc(CCNC(=O)CCCCCCNC3c4ccccc4N(C)S(=O)(=O)c4cc(Cl)ccc43)c2c1 (centres unmarked) [Compound 13, 7-((3-chloro-6-methyl-5,5-dioxido-6,11-dihydrodibenzo[c,f][1,2]thiazepin-11-yl)amino)-N-(2-(5-methoxy-1H-indol-3-yl)ethyl)heptanamide]
[1]
  inhibition at 10 µM: 25.6 ± 9.7%
[2]; [4]
  inhibition at 10 µM: 39.7 ± 6.3%
[3]; [5]
  inhibition at 10 µM: 23.7 ± 7.5%

## Fc1ccc(C(OCCN2CCN(CCCc3ccccc3)CC2)c2ccc(F)cc2)cc1 [GBR12909, reference compound]
[1]
  inhibition at 10 µM: 85.9 ± 0.27%
[2]
  inhibition at 10 µM: 70.6 ± 1.3%
[3]
  inhibition at 10 µM: 79.1 ± 0.71%

## CNCCC(Oc1ccccc1OC)c1ccccc1 (centres unmarked) [Nisoxetine, reference compound]
[1]
  inhibition at 10 µM: 79.7 ± 1.4%
[2]
  inhibition at 10 µM: 79.8 ± 0.32%
